Results taken from US11180488B2, “Isoxazole o-linked carbamoyl cyclohexyl acids as LPA antagonists” (BRISTOL-MYERS SQUIBB COMPANY, priority 2017, dated 2021).

biological target: T1, human LPA1 (Homo sapiens, UniProt Q92633); assay: LPA1 functional antagonist assay (LPA-induced calcium flux); format: cell-based; details: CHO cells overexpressing human LPA1; calcium flux induced by 10 nM LPA; read-out: hLPA1 IC50
T1 construct: expressed in transfected cells; host or cells: Chinese hamster ovary (CHO) cells
Experimental: The effectiveness of compounds of the present invention as LPA1 inhibitors can be determined in an LPA1 functional antagonist assay as follows:
Chinese hamster ovary cells overexpressing human LPA1 were plated overnight (15,000 cells/well) in poly-D-lysine coated 384-well microplates (Greiner bio-one, Cat #781946) in DMEM/F12 medium (Gibco, Cat #11039). Following overnight culture, cells were loaded with calcium indicator dye (AAT Bioquest Inc, Cat #34601) for 30 minutes at 37° C. The cells were then equilibrated to room temperature for 30 minutes before the assay. Test compounds solubilized in DMSO were transferred to 384 well non-binding surface plates (Corning, Cat #3575) using the Labcyte Echo acoustic dispense and diluted with assay buffer [1×HBSS with calcium/magnesium (Gibco Cat #14025-092), 20 mM HEPES (Gibco Cat #15630-080) and 0.1% fatty acid free BSA (Sigma Cat #A9205)] to a final concentration of 0.5% DMSO. Diluted compounds were added to the cells by FDSS6000 (Hamamatsu) at final concentrations ranging from 0.08 nM to 5 μM. and were then incubated for 20 min at room temperature at which time LPA (Avanti Polar Lipids Cat #857130C) was added at final concentrations of 10 nM to stimulate the cells. […] IC50 values were determined by fitting data to a 4-parameter logistic equation (GraphPad Prism, San Diego Calif.).

T1 sequence (Q92633 whole entry): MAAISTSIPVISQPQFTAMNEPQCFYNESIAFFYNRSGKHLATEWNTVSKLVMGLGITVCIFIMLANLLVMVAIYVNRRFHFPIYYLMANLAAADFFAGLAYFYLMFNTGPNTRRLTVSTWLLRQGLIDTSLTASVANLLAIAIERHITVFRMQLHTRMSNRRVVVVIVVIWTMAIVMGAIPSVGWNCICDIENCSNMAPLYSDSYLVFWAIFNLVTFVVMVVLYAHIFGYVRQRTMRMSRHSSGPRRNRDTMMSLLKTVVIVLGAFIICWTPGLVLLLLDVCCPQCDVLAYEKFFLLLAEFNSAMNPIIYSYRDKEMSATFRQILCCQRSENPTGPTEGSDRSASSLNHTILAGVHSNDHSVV

First: Cc1noc(-c2ccc(OC3CCCC(C#N)C3)cc2)c1COC(=O)N(C)C1CCCC1 (mixture of isomers) [Example 74, (5-(4-((3-cyanocyclohexyl)oxy)phenyl)-3-methylisoxazol-4-yl)methyl cyclopentyl(methyl)carbamate]
Second: Cc1noc(-c2ccc(O[C@H]3CCC[C@H](C(N)=O)C3)cc2)c1COC(=O)N(C)C1CCCC1 (racemic) [Example 73, (±)-Trans-(5-(4-((3-carbamoylcyclohexyl)oxy)phenyl)-3-methylisoxazol-4-yl)methyl cyclopentyl(methyl)carbamate]
The IC50 of the first is 2.7-fold higher: 3250 nM for the first, 1210 nM for the second.

`Cc1noc(-c2ccc(OC3CCCC(c4nnn[nH]4)C3)cc2)c1COC(=O)N(C)C1CCCC1` (mixture of isomers) [Example 75, (5-(4-((3-(1H-tetrazol-5-yl)cyclohexyl)oxy)phenyl)-3-methylisoxazol-4-yl) methyl cyclopentyl(methyl)carbamate] and `Cc1noc(-c2ccc(O[C@@H]3CCC[C@@H](CC(=O)O)C3)cc2)c1COC(=O)N(C)C1CCCC1` (racemic) [Example 47, (±)-(Trans)-2-(3-(4-(4-(((cyclopentyl(methyl)carbamoyl)oxy)methyl)-3-methylisoxazol-5-yl)phenoxy)cyclohexyl)acetic Acid] are within 1.5-fold of each other in IC50: 851 nM for the first, 570 nM for the second.

Compared with `Cc1noc(-c2ccc(O[C@@H]3CCC[C@@](F)(C(=O)O)C3)cc2)c1COC(=O)N(C)C1CCCC1` (racemic) [Example 3], `Cc1noc(-c2ccc(OC3CCCC(F)(C(=O)O)C3)cc2)c1COC(=O)N(C)C1CCCC1` (single isomer, unassigned) [Example 5] is 7.4-fold higher in IC50: 18 nM for the first, 133 nM for the second.

First: Cc1noc(-c2ccc(O[C@@H]3CCC[C@](C)(C(=O)O)C3)cc2)c1COC(=O)N(C)C1CCCC1 (racemic) [Example 7, (±)-Cis-3-(4-(4-(((cyclopentyl(methyl)carbamoyl)oxy)methyl)-3-methylisoxazol-5-yl)phenoxy)-1-methylcyclohexanecarboxylic Acid]
Second: Cc1noc(-c2ccc(O[C@H]3CCC[C@](C)(C(=O)O)C3)cc2)c1COC(=O)N(C)C1CCCC1 (racemic) [Example 8, (±)-Trans-3-(4-(4-(((cyclopentyl(methyl)carbamoyl)oxy)methyl)-3-methylisoxazol-5-yl)phenoxy)-1-methylcyclohexanecarboxylic Acid]
The IC50 of the first is 24-fold higher: 2180 nM for the first, 89 nM for the second.

Compared with `Cc1noc(-c2cnc(O[C@H]3CCC[C@H](C(=O)O)C3)cn2)c1COC(=O)N(C)C(C)C1CC1` (mixture of isomers) [Example 9, (±)-Trans-3-((5-(4-((((1-cyclopropylethyl)(methyl)carbamoyl)oxy)methyl)-3-methyl-isoxazol-5-yl)pyrazin-2-yl)oxy)cyclohexanecarboxylic Acid], `Cc1nc(-c2onc(C)c2COC(=O)N(C)CC2CC2)ccc1O[C@H]1CCC[C@H](C(=O)O)C1` [Example 14] is 6.1-fold lower in IC50: 85 nM for the first, 14 nM for the second.

Going from `Cc1noc(-c2ccc(O[C@H]3CCC[C@H](C(=O)O)C3)cc2)c1COC(=O)N(C)CCC1CCC1` (racemic) [Example 29] to `Cc1noc(-c2ccc(O[C@H]3CCC[C@H](C(=O)O)C3)cc2)c1COC(=O)N(C)CCC1CC1` [Example 27], the IC50 falls from 424 nM to 23 nM (18-fold).

Compared with `Cc1noc(-c2ccc(O[C@@H]3CCC[C@@](F)(C(=O)O)C3)cc2)c1COC(=O)N(C)C1CCCC1` (single isomer, unassigned) [Example 4], `Cc1noc(-c2ccc(O[C@H]3CCC[C@H](C(=O)O)C3)cc2)c1COC(=O)N(C)C1CCOC1` (stereo partly shown) [Example 31] is 25-fold higher in IC50: 15 nM for the first, 370 nM for the second. The first is the more potent here.

First: Cc1noc(-c2ccc(OC3CCCC(c4nnn[nH]4)C3)cc2)c1COC(=O)N(C)C1CCCC1 (single isomer, unassigned) [Example 76, (5-(4-((3-(1H-tetrazol-5-yl)cyclohexyl)oxy)phenyl)-3-methylisoxazol-4-yl)methyl cyclopentyl(methyl)carbamate]
Second: Cc1noc(-c2ccc(O[C@@H]3CCC[C@@](F)(C(=O)O)C3)cc2)c1COC(=O)N(C)C1CCCC1 [Example 6]
The IC50 of the first is 22-fold higher: 2310 nM for the first, 103 nM for the second. The second is the more potent here.

`Cc1noc(-c2ccc(OC3CCCC(c4nnn[nH]4)C3)cc2)c1COC(=O)N(C)C1CCCC1` (single isomer, unassigned) [Example 77, (5-(4-((3-(1H-tetrazol-5-yl)cyclohexyl)oxy)phenyl)-3-methylisoxazol-4-yl)methyl cyclopentyl(methyl)carbamate] and `Cc1noc(-c2ccc(O[C@@H]3CCC[C@@H](C(=O)O)C3)cc2)c1COC(=O)N(C)CCC1CCCC1` [Example 28] are within 1.5-fold of each other in IC50: 379 nM for the first, 470 nM for the second.

Compared with `Cc1noc(-c2ccc(OC3CCCC(c4nnn[nH]4)C3)cc2)c1COC(=O)N(C)C1CCCC1` (single isomer, unassigned) [Example 78, (5-(4-((3-(1H-tetrazol-5-yl)cyclohexyl)oxy)phenyl)-3-methylisoxazol-4-yl)methyl cyclopentyl(methyl)carbamate], `Cc1noc(-c2ccc(O[C@H]3CCC[C@H](C(=O)O)C3)cc2)c1COC(=O)N(C)CC1CCC1` [Example 34] is 6.9-fold lower in IC50: 565 nM for the first, 82 nM for the second. The second is the more potent here.

Compared with `CCCCN(C)C(=O)OCc1c(C)noc1-c1ccc(O[C@H]2CCC[C@H](C(=O)O)C2)cc1` [Example 2, (1S,3S)-3-(4-(4-(((butyl(methyl)carbamoyl)oxy)methyl)-3-methylisoxazol-5-yl)phenoxy) cyclohexane-1-carboxylic Acid], `Cc1noc(-c2ccc(O[C@H]3CCC[C@H](C(=O)O)C3)cc2)c1COC(=O)N(C)CCC(C)(C)C` [Example 30] is 2.1-fold higher in IC50: 28 nM for the first, 60 nM for the second. The first is the more potent here.

`Cc1nc(-c2onc(C)c2COC(=O)N(C)CCC2CC2)ccc1O[C@H]1CCC[C@H](C(=O)O)C1` [Example 10, (1S,3S)-3-((6-(4-((((2-Cyclopropylethyl)(methyl)carbamoyl)oxy)methyl)-3-methylisoxa-zol-5-yl)-2-methylpyridin-3-yl)oxy)cyclohexanecarboxylic Acid] and `Cc1nc(-c2onc(C)c2COC(=O)N(C)CC2CCC2)ccc1O[C@H]1CCC[C@H](C(=O)O)C1` [Example 11] are within 1.5-fold of each other in IC50: 11 nM for the first, 13 nM for the second.

Compared with `Cc1nc(-c2onc(C)c2COC(=O)N(C)C2CCCC2)ccc1O[C@H]1CCC[C@H](C(=O)O)C1` [Example 12], `Cc1nc(-c2onc(C)c2COC(=O)N(C)CC2CCCC2)ccc1O[C@H]1CCC[C@H](C(=O)O)C1` [Example 21] is 2.1-fold higher in IC50: 14 nM for the first, 29 nM for the second.

Compared with `CCC(CC)N(C)C(=O)OCc1c(C)noc1-c1ccc(O[C@H]2CCC[C@H](C(=O)O)C2)c(C)n1` [Example 13], `Cc1nc(-c2onc(C)c2COC(=O)N(C)CCC(C)C)ccc1O[C@H]1CCC[C@H](C(=O)O)C1` [Example 20] is 6.6-fold lower in IC50: 53 nM for the first, 8 nM for the second.

Going from `CCCCN(C)C(=O)OCc1c(C)noc1-c1ccc(O[C@H]2CCC[C@H](C(=O)O)C2)c(C)n1` [Example 15] to `CCCCCN(C)C(=O)OCc1c(C)noc1-c1ccc(O[C@H]2CCC[C@H](C(=O)O)C2)c(C)n1` [Example 19], the IC50 falls from 15 nM to 10 nM (1.5-fold). The second is the more potent here.

Compared with `Cc1nc(-c2onc(C)c2COC(=O)N(C)C2(c3ccccc3)CC2)ccc1O[C@H]1CCC[C@H](C(=O)O)C1` [Example 16], `Cc1nc(-c2onc(C)c2COC(=O)N(C)Cc2ccccc2)ccc1O[C@H]1CCC[C@H](C(=O)O)C1` [Example 18] is 3-fold lower in IC50: 93 nM for the first, 31 nM for the second.

Compared with `Cc1nc(-c2onc(C)c2COC(=O)N(C)Cc2cccc(Cl)c2)ccc1O[C@H]1CCC[C@H](C(=O)O)C1` [Example 17], `Cc1noc(-c2ccc(O[C@H]3CCC[C@H](C(=O)O)C3)cc2)c1COC(=O)N1C[C@H]2C[C@H]2C1` [Example 35] is 3.1-fold higher in IC50: 399 nM for the first, 1230 nM for the second. The first is the more potent here.
